Results as given in ChEMBL document CHEMBL4813920, “Metronidazole-conjugates: A comprehensive review of recent developments towards synthesis and medicinal perspective” (Eur J Med Chem, 2021).
Converted amounts (≈) assume the structure as drawn.

Assays:
HepG2 [1] = assay: cells; settings: Homo sapiens, HepG2, 48 h
HeLa [2] = assay: cells; settings: Homo sapiens, 48 h
A549 [3] = assay: cells; settings: Homo sapiens, A549, 48 h
MCF7 [4] = assay: cells; settings: Homo sapiens, MCF7, 48 h
Entamoeba histolytica [5] = assay: Antiamoebic activity against Entamoeba histolytica HM-1:IMSS trophozoites measured after 72 hrs by microdilution method; assay type: functional, organism-based
Pseudomonas aeruginosa [6] = assay: Antibacterial activity against Pseudomonas aeruginosa ATCC 13525 by MH media dilution method; assay type: functional
Bacillus spizizenii = assay: Antibacterial activity against Bacillus subtilis ATCC 6633 by MH media dilution method; assay type: functional
Escherichia coli [7] = assay: Antibacterial activity against Escherichia coli ATCC 35218 by MH media dilution method; assay type: functional
[8] = Inhibition of Staphylococcus aureus TyrRS using L-tyrosine and tRNA as substrate preincubated for 10 mins followed by substrate addition by liquid scintillation counting method
Staphylococcus aureus = assay: Antibacterial activity against Staphylococcus aureus ATCC 6538 by MH media dilution method; assay type: functional
HepG2 [9] = assay: Antiproliferative activity against human HepG2 cells incubated for 24 to 48 hrs by CCK8 assay; assay type: functional, cell-based
A549 [10] = assay: Antiproliferative activity against human A549 cells incubated for 24 to 48 hrs by CCK8 assay; assay type: functional, cell-based
[11] = molecular target: Telomerase reverse transcriptase (Homo sapiens, UniProt O14746); assay: Inhibition of telomerase in human SGC-7901 cell extract by TRAP assay
Chain of Telomerase reverse transcriptase (O14746 whole entry): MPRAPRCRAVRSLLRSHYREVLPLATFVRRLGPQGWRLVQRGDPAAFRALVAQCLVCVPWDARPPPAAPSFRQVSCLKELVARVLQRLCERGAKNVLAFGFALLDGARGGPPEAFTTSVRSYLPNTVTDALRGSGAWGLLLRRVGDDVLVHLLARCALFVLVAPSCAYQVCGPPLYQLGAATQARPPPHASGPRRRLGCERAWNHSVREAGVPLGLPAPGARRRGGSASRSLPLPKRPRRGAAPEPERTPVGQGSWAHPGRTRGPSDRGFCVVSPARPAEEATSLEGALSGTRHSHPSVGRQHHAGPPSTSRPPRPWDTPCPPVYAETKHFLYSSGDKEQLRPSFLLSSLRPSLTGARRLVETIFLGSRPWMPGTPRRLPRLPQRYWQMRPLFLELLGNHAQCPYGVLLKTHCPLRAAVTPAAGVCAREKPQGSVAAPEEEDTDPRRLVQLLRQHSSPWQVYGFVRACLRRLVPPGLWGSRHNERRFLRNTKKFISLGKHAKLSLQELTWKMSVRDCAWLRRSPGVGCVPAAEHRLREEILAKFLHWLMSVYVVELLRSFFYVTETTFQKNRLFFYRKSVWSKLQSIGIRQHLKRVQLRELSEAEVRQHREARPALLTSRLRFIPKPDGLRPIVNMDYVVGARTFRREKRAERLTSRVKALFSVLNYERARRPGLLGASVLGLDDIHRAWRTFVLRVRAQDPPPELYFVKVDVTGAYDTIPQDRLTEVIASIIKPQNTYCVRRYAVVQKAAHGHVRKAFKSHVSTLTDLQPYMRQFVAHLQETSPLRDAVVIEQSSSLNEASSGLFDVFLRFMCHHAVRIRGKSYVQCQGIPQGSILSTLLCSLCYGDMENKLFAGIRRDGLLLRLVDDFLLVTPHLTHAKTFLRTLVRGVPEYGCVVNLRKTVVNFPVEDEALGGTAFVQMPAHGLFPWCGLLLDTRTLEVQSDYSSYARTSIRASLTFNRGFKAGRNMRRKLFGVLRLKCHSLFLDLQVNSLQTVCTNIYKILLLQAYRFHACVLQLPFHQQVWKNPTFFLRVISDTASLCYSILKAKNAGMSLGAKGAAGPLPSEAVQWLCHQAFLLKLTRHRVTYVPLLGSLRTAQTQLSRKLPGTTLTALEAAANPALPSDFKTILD

U-251 = assay: Antiproliferative activity against human U-251 cells incubated for 24 to 48 hrs by CCK8 assay; assay type: functional, cell-based
HeLa [12] = assay: Antiproliferative activity against human Hela cells incubated for 24 to 48 hrs by CCK8 assay; assay type: functional, cell-based
B16-F10 = assay: Antiproliferative activity against mouse B16-F10 cells incubated for 24 to 48 hrs by MTT assay; assay type: functional, cell-based
Entamoeba histolytica [13] = assay: Antiamoebic activity against Entamoeba histolytica HM-1:IMSS trophozoites incubated for 2 days under anaerobic condition; assay type: functional, organism-based; settings: 48 h
Giardia intestinalis = assay: Antigiardial activity against Giardia intestinalis WB incubated for 2 days under anaerobic condition; assay type: functional, organism-based; settings: Giardia duodenalis, 48 h
MCF7 [14] = assay: cells; settings: Homo sapiens, MCF7, 24 h
MDA-MB-231 = assay: Antiproliferative activity against human MDA-MB-231 cells after 24 hrs by MTT assay; assay type: functional, cell-based; settings: MDA-MB-231, 24 h
HEK293 = assay: Cytotoxicity against HEK293 cells after 24 hrs by MTT assay; assay type: cell-based; settings: Homo sapiens, HEK293, 24 h
Helicobacter pylori [15] = assay: Antibacterial activity against Helicobacter pylori P12 incubated for 48 hrs by MTT assay; assay type: functional, organism-based
Helicobacter pylori [16] = assay: Antibacterial activity against Helicobacter pylori ATCC 26695 incubated for 48 hrs by MTT assay; assay type: functional, organism-based
Clostridium perfringens = assay: Antibacterial activity against Clostridium perfringens ATCC 13124 incubated for 48 hrs under anaerobic condition by MTT assay; assay type: functional
Helicobacter pylori [17] = assay: Antimicrobial activity against Helicobacter pylori clinical isolate1 for 3 days by agar dilution method; assay type: functional; settings: clinical isolate1, 72 h, time 3 day
Helicobacter pylori [18] = assay: Antimicrobial activity against Helicobacter pylori SS1 clinical isolate2 for 3 days by agar dilution method; assay type: functional; settings: SS1 clinical isolate2, 72 h, time 3 day
Helicobacter pylori [19] = assay: Antimicrobial activity against Helicobacter pylori clinical isolate4 for 3 days by agar dilution method; assay type: functional; settings: clinical isolate4, 72 h, time 3 day
Helicobacter pylori [20] = assay: Antimicrobial activity against Helicobacter pylori SS1 incubated for 3 days by agar dilution method; assay type: functional; settings: SS1, 72 h, time 3 day
Helicobacter pylori [21] = assay: Antimicrobial activity against Helicobacter pylori clinical isolate3 for 3 days by agar dilution method; assay type: functional; settings: clinical isolate3, 72 h, time 3 day
Helicobacter pylori [22] = assay: Antimicrobial activity against Helicobacter pylori ATCC 43504 incubated for 3 days by agar dilution method; assay type: functional; settings: NCTC 11637 = CCUG 17874 = ATCC 43504, 72 h, time 3 day
Candida parapsilosis = assay: Antimicrobial activity against Candida parapsilosis ATCC 22019; assay type: functional; settings: Lodderomyces parapsilosis
Candida albicans = assay: Antimicrobial activity against Candida albicans ATCC 90023; assay type: functional
Pseudomonas aeruginosa [23] = assay: Antibacterial activity against Pseudomonas aeruginosa ATCC 27853 by microbroth dilution method; assay type: functional
Escherichia coli [24] = assay: Antibacterial activity against Escherichia coli by microbroth dilution method; assay type: functional
Enterococcus faecalis = assay: Antibacterial activity against Enterococcus faecalis by microbroth dilution method; assay type: functional
Acinetobacter baumannii = assay: Antibacterial activity against Acinetobacter baumannii by microbroth dilution method; assay type: functional

For `COc1cc(/C=C\c2ncc([N+](=O)[O-])n2CCOC(=O)c2c[nH]c3ccccc23)cc(OC)c1OC`, the IC50 (HepG2 [1]) was 0.04 µM, the IC50 (HeLa [2]) was 0.015 µM and the IC50 (A549 [3]) was 0.035 µM. It also gave an IC50 (MCF7 [4]) of 0.03 µM.
In the case of `Cc1ncc([N+](=O)[O-])n1CCOC(=O)Nc1ccc(OCc2cccc(I)c2)cc1`, the IC50 (Entamoeba histolytica [5]) is reported as 0.26 µM.
`COc1ccc(-c2cc(C(=O)OCCn3c([N+](=O)[O-])cnc3C)nn2-c2ccccc2)cc1` showed an MIC (Pseudomonas aeruginosa [6]) of 0.98 µg/mL (≈ 2.19 µM), an MIC (Bacillus spizizenii) of 3.91 µg/mL (≈ 8.74 µM) and an MIC (Escherichia coli [7]) of 1.96 µg/mL (≈ 4.38 µM). For the same compound, the IC50 [8] was 0.92 µM and the MIC (Staphylococcus aureus) was 3.91 µg/mL (≈ 8.74 µM).
Work on `Cc1ncc([N+](=O)[O-])n1CCOC(=O)Nc1ccc(OS(=O)(=O)c2ccc(C(F)(F)F)cc2)cc1` yielded an IC50 (Entamoeba histolytica [5]) of 0.24 µM.
In the case of `O=C(OCCn1c([N+](=O)[O-])cnc1/C=C/c1ccc2ccccc2c1)c1nccc2ccccc12`, the IC50 (HepG2 [9]) is reported as 0.1 µM, the IC50 (A549 [10]) is reported as 0.11 µM and the IC50 [11] is reported as 0.98 µM. The IC50 (U-251) was 0.32 µM and the IC50 (HeLa [12]) was 0.05 µM.
In the case of `Cc1ccnc(NS(=O)(=O)c2ccc(/N=C\c3ccc(OCCn4c([N+](=O)[O-])cnc4C)cc3)cc2)n1`, the IC50 (B16-F10) is reported as 0.22 µM.
Work on `Cc1ncc([N+](=O)[O-])n1CCn1cc(CN2C(=O)C(=C3OCCO3)c3cc(Br)ccc32)nn1` yielded an IC50 (Entamoeba histolytica [13]) of 1.5 µM and an IC50 (Giardia intestinalis) of 0.8 µM.
For `Cc1ncc([N+](=O)[O-])n1Cc1cn(CCCCCN2C(=O)C(=O)c3cc(F)ccc32)nn1`, the IC50 (MCF7 [14]) was 70.7 µM, the IC50 (MDA-MB-231) was 56.2 µM and the IC50 (HEK293) was greater than 100 µM.
With `Cc1ccc(C(C)C)cc1OC(=O)Cn1c([N+](=O)[O-])cnc1C` the IC50 (Helicobacter pylori [15]) was 35.17 uM/ml, the IC50 (Helicobacter pylori [16]) was 52.35 uM/ml and the MIC (Clostridium perfringens) was 0.0094 µM (≈ 0.00298 µg/mL).
In the case of `Cc1ncc([N+](=O)[O-])n1CCOc1ccc(C(=O)Cc2ccc([N+](=O)[O-])cc2)c(O)c1O`, the MIC (Helicobacter pylori [17]) is reported as 1.76 µM (≈ 0.779 µg/mL), the MIC (Helicobacter pylori [18]) is reported as 0.88 µM (≈ 0.389 µg/mL) and the MIC (Helicobacter pylori [19]) is reported as 1.76 µM (≈ 0.779 µg/mL). It also gave an MIC (Helicobacter pylori [20]) of 1.76 µM (≈ 0.779 µg/mL), an MIC (Helicobacter pylori [21]) of 1.76 µM (≈ 0.779 µg/mL) and an MIC (Helicobacter pylori [22]) of 1.76 µM (≈ 0.779 µg/mL).
For `CC1(C)S[C@@H]2[C@H](NC(=O)[C@H](N)c3ccc(O)cc3)C(=O)N2[C@H]1C(=O)O` [AMOXICILLIN], the MIC (Helicobacter pylori [17]) was 1.07 µM (≈ 0.391 µg/mL), the MIC (Helicobacter pylori [18]) was 1.07 µM (≈ 0.391 µg/mL) and the MIC (Helicobacter pylori [19]) was 1.07 µM (≈ 0.391 µg/mL). For the same compound, the MIC (Helicobacter pylori [20]) was 0.14 µM (≈ 0.0512 µg/mL), the MIC (Helicobacter pylori [21]) was 1.07 µM (≈ 0.391 µg/mL) and the MIC (Helicobacter pylori [22]) was 0.14 µM (≈ 0.0512 µg/mL).
`COc1cc2c(c(OC)c1OC)-c1ccc(OC)c(=O)cc1[C@@H](NC(C)=O)CC2` [COLCHICINE] gave an IC50 (HepG2 [1]) of 0.045 µM, an IC50 (HeLa [2]) of 0.055 µM and an IC50 (A549 [3]) of 0.037 µM. It also gave an IC50 (MCF7 [4]) of 0.038 µM.
With `OC(Cn1cncn1)(Cn1cncn1)c1ccc(F)cc1F` [FLUCONAZOLE] the MIC (Candida parapsilosis) was 156 µM (≈ 47.8 µg/mL) and the MIC (Candida albicans) was 156 µM (≈ 47.8 µg/mL).
`CCn1cc(C(=O)O)c(=O)c2cc(F)c(N3CCNCC3)cc21` [NORFLOXACIN] gave an MIC (Pseudomonas aeruginosa [23]) of 1600 µM (≈ 513 µg/mL), an MIC (Escherichia coli [24]) of 1600 µM (≈ 513 µg/mL) and an MIC (Enterococcus faecalis) of 803 µM (≈ 256 µg/mL). It also gave an MIC (Acinetobacter baumannii) of 803 µM (≈ 256 µg/mL).
